The source of these data is patent publication US8653072B2, “Estrogen receptor ligands” (Karo Bio AB, priority 2008, dated 2014).

Usually IC50 stands for the midpoint of a concentration-inhibition curve. In general, EC50 refers to the concentration that produces a half-maximal response.

For one assay, the target named is T1, human ERβ (ERβ-LBD) (Homo sapiens, UniProt Q92731).
T1 construct: ERβ (ERβ-LBD, pET-N-AT #1, aa 255-530); made in house; host or cells: E. coli BL21 (DE3) pBirA
Briefly: Binding assay 1: estrogen receptor SPA binding assay (3H-E2 displacement), ERβ. The settings on record: read-out: binding affinity to the estrogen receptor β-subtype, IC50. On the procedure:
Binding Assay 1: Estrogen Receptor Binding Assay
The estrogen receptor ligand binding assays are designed as scintillation proximity assays (SPA), employing the use of tritiated estradiol (^3H-E2) and recombinant expressed biotinylated estrogen receptor binding domains. The binding domains of human ERα (ERα-LBD, pET-N-AT #1, aa 301-595) and ERβ (ERβ-LBD, pET-N-AT #1, aa 255-530) proteins are produced in E. coli ((BL21, (DE3), pBirA)) at 22 C in 2×LB medium supplemented with 50 uM biotin. After 3 h of IPTG induction (0.55 mM), cells are harvested by centrifugation at 7300×g for 15 min and cell pellets stored frozen in −20 C. Extraction of ERα and ERβ are performed using 5 g of cells suspended in 50 mL of extraction buffer (50 mM Trig, pH 8.0, 100 mM KCl, 4 mM EDTA, 4 mM DDT and 0.1 mM PMSF). The cell suspension is run twice through a Microfluidizer M-110L (Microfluidics) and centrifuged at 15,000×g for 60 min. The supernatant is aliquoted and stored in −70 C.
Dilute ERα-LBD or ERβ-LBD extracts in assay buffer (18 mM K2HPO4, 2 mM KH2PO4, 20 mM NasMoO4, 1 mM EDTA, 1 mM TCEP) 1:676 and 1:517 for alpha and beta respectively. The diluted receptor concentrations should be 900 fmol/L. Preincubate the extracts with streptavidin coated polyvinyltoluene SPA beads (RPNQ0007, GE Healthcare) at a concentration of 0.43 mg/mL for 1 hr at room temperature.
Test compounds are evaluated over a range of concentrations from 157 μM to 37.5 pM. The test compound stock solutions should be made in 100% DMSO at 5× of the final concentration desired for testing in the assay. The amount of DMSO in the test wells of the 384 well plate will be 20%. Add 18 μl aliquots of test compounds to the assay plates followed by 35 μl of the preincubated receptor/SPA bead mix and finally add 35 μl of 3 nM ^3H-E2. Cover the plates with a plastic sealer, centrifuge for 1 minute at 1000 rpm and equilibrate over night on a shaker at room temperature. The following morning, centrifuge the plates 5 minutes at 2000 rpm and measure on a plate scintillation counter e.g. a PerkinElmer Microbeta 1450 Trilux.
For compounds able to displace 3[H]-E2 from the receptor an IC50-value (the concentration required to inhibit 50% of the binding of 3[H]-E2) is determined by a non-linear four parameter logistic model; b=((bmax−bmin)/(1+(I/IC50)S))+bmin I is added concentration of binding inhibitor, IC50 is the concentration of inhibitor at half maximal binding and S is a slope factor. The Microbeta-instrument generates the mean cpm (counts per minute) value/minute and corrects for individual variations between the detectors thus generating corrected cpm values.

The target in assay [1] is T2, human estrogen receptor beta (hERβ 530) (Homo sapiens, UniProt Q92731).
T2 construct: expressed in transfected cells
As to the kind of experiment: Transactivation assay 2: HEK293 cells stably transfected with pERE2-ALP and human estrogen receptor beta. The assay is classed as cell-based. The settings on record: read-out: potency at the estrogen receptor β-subtype, EC50. On the procedure: Transactivation Assay 2: Transactivation Assay in Human Embryonic Kidney 293 Cells Stably Transfected with pERE2-ALP and Human Estrogen Receptor Beta
Generation of stable HEK293 cell lines (CRL-1573; American Type Culture Collection) expressing the reporter vector pERE2-ALP and human estrogen receptor beta (hERβ 530) have been described (Mol Pharmacol 1998, 54, 105-112; Endocrinology 2002, 143, 1558-1561),
The cells were seeded in 384-well plates at 12 500 cells per well in Ham's F12 Coon's modification (without phenol red) with 10% dextran-coated charcoal treated (DCC) fetal bovine serum (FBS), 2 mM L-glutamine and 50 μg/ml gentamicin. After 24 h incubation (37° C., 5% CO2) the seeding medium was discarded and replaced with 20 μl Ham's F12 Coon's modification (without phenol red) with 1.5 DCC-FCS, 2 mM L-glutamine and supplemented with 100 U/ml penicillin and 100 μg/ml streptomycin. The selected compounds were added to the wells in 12 concentrations ranging from […] to 33 μM. The compounds were dissolved in 100% dimethylsulfoxide (DMSO) and the final concentration of DMSO in the assay was 0.1%. After 72 h incubation (37° C., 5% CO2) the medium was assayed for ALP activity by a chemiluminescence assay; a 10 μl aliquot of the conditioned medium was mixed with 100 μl assay buffer (0.1 M diethanolamine, 1 mM MgCl2) and 0.5 mM disodium 3-(4-methoxyspiro 1,2-dioxetane-3,2′-(5′-chloro)-tricyclo[3.3.1.13,7]decan-4-yl)phenyl phosphate (CSPD) (Tropix, Applied Biosystems) and incubated for 20 min at 37° C. and 15 min at room temperature before measurement of the chemiluminescent signal (one second per well) in a Wallac Microbeta Trilux 1450-028 (PerkinElmer). The ALP activity expressed in LCPS is directly proportional to the level of ALP expressed by the cells. The half maximal effective concentrations of the test compounds (EC50) were calculated from the curves fitted to the concentration-response data with a four parameter logistic model in XLfit software version 2.0 (IDBS) or later.

The structures appear in SMILES notation.

T1 sequence (Q92731 255-530): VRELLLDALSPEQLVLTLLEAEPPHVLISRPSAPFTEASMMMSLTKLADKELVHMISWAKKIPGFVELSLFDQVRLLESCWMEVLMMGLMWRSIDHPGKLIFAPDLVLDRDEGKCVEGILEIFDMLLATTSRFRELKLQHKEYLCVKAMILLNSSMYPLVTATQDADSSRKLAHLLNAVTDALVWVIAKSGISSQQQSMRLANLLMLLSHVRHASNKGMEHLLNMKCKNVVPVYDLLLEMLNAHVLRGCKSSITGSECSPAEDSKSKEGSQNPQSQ
T2 sequence (Q92731 whole entry): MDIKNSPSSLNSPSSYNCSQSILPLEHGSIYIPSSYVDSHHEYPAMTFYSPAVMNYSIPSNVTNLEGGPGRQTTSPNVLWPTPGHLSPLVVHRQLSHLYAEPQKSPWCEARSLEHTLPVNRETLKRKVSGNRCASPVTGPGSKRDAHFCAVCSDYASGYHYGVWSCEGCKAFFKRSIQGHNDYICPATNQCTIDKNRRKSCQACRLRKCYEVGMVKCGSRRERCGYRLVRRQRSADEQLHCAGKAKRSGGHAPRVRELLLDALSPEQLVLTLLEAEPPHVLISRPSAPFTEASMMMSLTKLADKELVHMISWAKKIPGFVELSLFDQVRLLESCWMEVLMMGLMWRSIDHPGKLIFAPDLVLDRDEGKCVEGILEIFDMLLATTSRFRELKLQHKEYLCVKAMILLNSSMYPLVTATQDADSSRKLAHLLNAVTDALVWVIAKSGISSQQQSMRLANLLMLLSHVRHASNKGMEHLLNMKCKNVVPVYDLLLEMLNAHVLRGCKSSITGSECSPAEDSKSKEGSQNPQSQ

Take `Cc1noc(C)c1-c1c(/C(N)=N/O)c2ccccc2n1-c1ccc(O)cc1` [Example 11, (Z)-2-(3,5-dimethylisoxazol-4-yl)-N′-hydroxy-1-(4-hydroxyphenyl)-1H-indole-3-carboximidamide]: the IC50 on human ERβ (ERβ-LBD) lay within 1 to 200 nM. Moreover, the half-maximal effective concentration (EC50) in assay [1] lay in the range of 1 to 50 nM.
Regarding `CC(C)=Cc1c(C#N)c2ccccc2n1-c1ccc(O)cc1` [Example 39, 2-(Isobut-1-enyl)-1-(4-hydroxyphenyl)-1H-indole-3-carbonitrile], at human ERβ (ERβ-LBD), the half-inhibitory concentration (IC50) is 1 to 200 nM. Further, the half-maximal effective concentration (EC50) in assay [1] was in the range of 1 to 50 nM.
For `Cc1noc(C)c1-c1c(-c2ccccc2)c2ccccc2n1-c1ccc(O)cc1` [Example 42, 4-(2-(3,5-dimethylisoxazol-4-yl)-3-phenyl-1H-indol-1-yl)phenol], the half-maximal inhibitory concentration (IC50) at human ERβ (ERβ-LBD) lay in the range of 1 to 200 nM. The concentration for a half-maximal effect (EC50) in assay [1] was in the range of 1 to 50 nM.
With `C/C=C\c1c(C#N)c2ccccc2n1-c1ccc(O)cc1` [Example 68, 1-(4-Hydroxy-phenyl)-2-((Z)-propenyl)-1H-indole-3-carbonitrile], the concentration for half-maximal inhibition (IC50) at human ERβ (ERβ-LBD) was in the range of 1 to 200 nM. In addition, the EC50 in assay [1] lay within 1 to 50 nM.
Consider `C=C(C)c1c(-c2ccccc2)n(-c2ccc(O)cc2)c2ccccc12` [Example 163, 4-(3-Isopropenyl-2-phenyl-indol-1-yl)-phenol], for which the half-inhibitory concentration (IC50) on human ERβ (ERβ-LBD) lay within 1 to 200 nM. Moreover, in assay [1], the EC50 was 1 to 50 nM.
The like results for `Cc1cccn1-c1c(/C(N)=N/O)c2ccccc2n1-c1ccc(O)cc1` [Example 188, (Z)-N′-hydroxy-1-(4-hydroxyphenyl)-2-(2-methyl-1H-pyrrol-1-yl)-1H-indole-3-carboximidamide] were, in that order, 1 to 200 nM and 1 to 50 nM.
The matching figures for `C/C=C(/C)c1c(/C(N)=N/O)c2ccccc2n1-c1ccc(O)cc1` [Example 191, (Z)-2-((Z)-but-2-en-2-yl)-N′-hydroxy-1-(4-hydroxyphenyl)-1H-indole-3-carboximidamide]: 1 to 200 nM and 1 to 50 nM.
The like results for `Cc1ccc(C)n1-c1c(/C(N)=N/O)c2ccccc2n1-c1ccc(O)cc1` [Example 194, (Z)-2-(2,5-dimethyl-1H-pyrrol-1-yl)-N′-hydroxy-1-(4-hydroxyphenyl)-1H-indole-3-carboximidamide] were, in that order, 1 to 200 nM and 1 to 50 nM.
As for `CC(C)=Cc1c(C#N)c2cc(F)ccc2n1-c1ccc(O)cc1` [Example 220, 5-Fluoro-1-(4-hydroxy-penyl)-2-(2-methyl-prop-1-enyl)-1H-indole-3-carbonitrile], the IC50 at human ERβ (ERβ-LBD) fell in the range of 1 to 200 nM. Further, the EC50 in assay [1] is 1 to 50 nM.
In the case of `Cc1noc(C)c1-c1c(/C(N)=N/O)c2cc(F)ccc2n1-c1ccc(O)cc1` [Example 221, (Z)-2-(3,5-dimethylisoxazol-4-yl)-5-fluoro-N′-hydroxy-1-(4-hydroxyphenyl)-1H-indole-3-carboximidamide], the IC50 at human ERβ (ERβ-LBD) is 1 to 200 nM. Besides, in assay [1], the concentration for a half-maximal effect (EC50) lay within 1 to 50 nM.
`CC(C)=Cc1c(/C(N)=N/O)c2cc(F)ccc2n1-c1ccc(O)cc1` [Example 223, (Z)-5-fluoro-N′-hydroxy-1-(4-hydroxyphenyl)-2-(2-methylprop-1-enyl)-1H-indole-3-carboximidamide]: the IC50 on human ERβ (ERβ-LBD) fell in the range of 1 to 200 nM. In assay [1], the 50% effective concentration (EC50) fell in the range of 1 to 50 nM.
For the compound `Cc1noc(C)c1-c1c(C(N)=NO)c2ccccc2n1-c1ccc(O)cc1F` [Example 235, (Z)-2-(3,5-dimethylisoxazol-4-yl)-1-(2-fluoro-4-hydroxyphenyl)-N′-hydroxy-21H-indole-3-carboximidamide], on human ERβ (ERβ-LBD), the IC50 lay in the range of 1 to 200 nM. Moreover, the EC50 in assay [1] was in the range of 1 to 50 nM.
